Test results from patent publication US12458605B2, “Lipid nanoparticle” (National University Corporation Hokkaido University, priority 2020, dated 2025).

Assays:
[1] = Storage stability of FlucmRNA-loaded LNP at −80, 5, 25 and 40° C.; assay type: physicochemical; conditions: for period for which quality remained good, −80° C.: maximum storage period 1 week
Procedure: Lipid nanoparticles were allowed to stand at each temperature of −80° C., 5° C., 25° C., and 40° C., and after keeping for each period of time, average particle size, PDI, and nucleic acid encapsulation rate were measured. Lipid nanoparticles which satisfy following all three conditions were defined that the quality was remained well: the average particle size is maintained within +/−20 nm based on the date of LNP preparation; PDI remains high uniformity with a value of 0.2 or less; and the nucleic acid encapsulation rate is also maintained at 80% or more. As a result of measuring average particle size, PDI, and nucleic acid encapsulation rate after each FlucmRNA-loaded lipid nanoparticle was allowed to stand at −80° C., 5° C., 25° C., and 40° C. respectively and kept for each period of time, periods of time defined as the quality of the lipid nanoparticles was remained well are shown in Tables 13 and 14. The lipid nanoparticles which remain in good quality with standing at 5° C. for one week or more can be evaluated as having excellent stability.

[2] = siRNA/mRNA encapsulation rate by Ribogreen reagent (section IV); assay type: physicochemical; conditions: for % siRNA encapsulation: F7siRNA-loaded LNP, 50:10:38.5:1.5, N/P ratio 6; for % mRNA encapsulation: FlucmRNA-loaded LNP, 50:10:38.5:1.5
Procedure: The encapsulation rates of siRNA and mRNA of lipid nanoparticles were measured with Ribogreen reagent. A solution diluted with TE buffer solution was arranged so that lipid nanoparticle concentration as nucleic acid concentration to be 8 μg/mL, as a solution for measuring nanoparticle surface nucleic acid concentration. In addition, a solution for measuring total nucleic acid concentration was arranged so that lipid nanoparticle concentration as nucleic acid concentration to be 1.2 μg/mL, which is 1% (w/w) concentration of X-triton100, by adding X-triton100. For 100 μL of each solution, 100 μL of Ribogreen (registered trademark) reagent (Quant-iT™ RiboGreen™ RNA Reagent, manufactured by Thermofisher Scientific) was mixed well in the wells of 96-well microplate (black, made of polystyrene, flat bottom, manufactured by Corning), and the fluorescence intensity at an excitation wavelength of 485 nm and a measurement wavelength of 528 nm was measured with a microplate reader. Nucleic acid concentration was calculated by calibration curve created by measuring the fluorescence intensity of nucleic acid solution containing 1% X-triton100 (nucleic acid concentration: 0-2.5 μg/mL) as same as aforementioned. Nucleic acid encapsulation rate of each lipid nanoparticle was calculated by the following formula: Encapsulation rate %=(nucleic acid concentration in solution for measuring total nucleic acid concentration (μg/mL)−nucleic acid concentration in solution for measuring nanoparticle surface nucleic acid concentration (μg/mL))/nucleic acid concentration in solution for measuring total nucleic acid concentration (μg/mL)×100. <Results>
The encapsulation rate of mRNA of lipid nanoparticles was measured using Ribogreen (manufactured by life technologies).

spleen = assay: In vivo Fluc activity of FlucmRNA-loaded LNP by in vivo imaging, spleen; conditions: Balb/c mice, 6 hours; for Fluc Activity in spleen: FlucmRNA-loaded LNP i.v. 0.1 mg mRNA/kg
Procedure: (§1) Then, each prepared FlucmRNA-loaded lipid nanoparticles were administered to Balb/c mice (Charles River Laboratories Japan, Inc., 7 weeks old, female) and in vivo gene expression activity was examined. Specifically, each FlucmRNA-loaded lipid nanoparticles were intravenously administered to Balb/c mice at 0.1 mg mRNA/kg, and Fluc activities in the liver and spleen at 6 hours later were measured. Fluc activity was measured by in vivo imaging system (Perkin Elmer, IVIS200) after administration of VivoGlo Luciferin, In Vivo Grade (Promega, P1041) dissolved with PBS to 15 mg/mL, via tail vein at a dose of 1.5 mg per mouse. The unit of Fluc activity is the emission intensity per unit area (Avg Radiance [p/s/cm2/sr]) at the maximum emission wavelength of about 560 nm. The results of measurement of the Fluc activity (Avg Radiance [p/s/cm2/sr]) in the liver and spleen of mice administered each FlucmRNA-loaded lipid nanoparticles are shown in Tables 5-7.

F7 = assay: In vivo F7 knockdown, plasma F7 enzyme activity (BIOPHEN FVII), Balb/c mice; conditions: for F7 enzyme activity (%): i.v. 0.025 mg siRNA/kg, plasma at 24 hours, untreated mice as 100%
Procedure: Then, each prepared F7siRNA-loaded lipid nanoparticles were administered to Balb/c mice (Charles River Laboratories Japan, Inc., 5 weeks old, female) and in vivo F7 knockdown activity was examined. Specifically, BALB/c mice were intravenously administered F7siRNA-loaded lipid nanoparticles comprising the lipids described in Table 9 at 0.025 mg siRNA/kg and F7siRNA-loaded lipid nanoparticles comprising the lipids described in Tables 10 and 11 at 0.025 mg siRNA/kg, and the plasma F7 enzyme activity at 24 hours later was measured using BIOPHEN FVII (Biophen, A221304). Relative plasma F7 enzyme activity (%) of mice administered each F7siRNA-loaded lipid nanoparticles was calculated using plasma F7 enzyme activity of untreated mice as 100%. Furthermore, the ratio was calculated using the relative plasma F7 enzyme activity (%) of mice administered MC3-comprising F7siRNA-loaded lipid nanoparticles as 1. The results of measurement of CL4F6 derivative nanoparticles are shown in Tables 9 and 10, and results of measurement of CL15F6 derivative nanoparticles in Table 11.

liver = assay: In vivo Fluc activity of FlucmRNA-loaded LNP by in vivo imaging, liver; conditions: Balb/c mice, 6 hours; for Fluc Activity in liver: FlucmRNA-loaded LNP i.v. 0.1 mg mRNA/kg
Procedure: as §1

[3] = Average particle size (ζ-Average) and PDI by dynamic light scattering (Zetasizer Nano ZSP); assay type: physicochemical
Procedure: The average particle size (ζ-Average) and PDI in PBS(−) of lipid nanoparticles were measured using “Zetasizer Nano ZSP”, an analyzer utilizing dynamic light scattering (manufactured by Malvern).
Measurement of average particle size and PDI of the lipid nanoparticles were carried out with the same method as the measurement of average particle size of mRNA-LNP.
The average particle size (ζ-Average) and PDI in PBS (−) of lipid nanoparticles were measured using “Zetasizer Nano ZSP”, an analyzer utilizing dynamic light scattering (manufactured by Malvern).

[4] = 0.1 mg mRNA/kg, versus LNP comprising CL4F6 (Tables 5 and 6)
[5] = F7siRNA-loaded LNP, 50:10:38.5:1.5, N/P ratio 6
[6] = FlucmRNA-loaded LNP, 50:10:38.5:1.5
[7] = FlucmRNA-loaded LNP, lipid:DSPC:cholesterol:DMG-PEG2K 50:10:38.5:1.5

Row | SMILES | period for which quality remained good, −80° C. [1] [week] | period for which quality remained good, 5° C. ([1]; maximum storage period 5 weeks) [weeks] | period for which quality remained good, 25° C. ([1]; maximum storage period 5 weeks) [weeks] | period for which quality remained good, 40° C. (days) ([1]; maximum storage period 5 weeks) [day days] | % siRNA encapsulation [2] [%] | % mRNA encapsulation [2] [%] | Fluc activity in the spleen, compared with CL4F6 (spleen; [4]) | Fluc Activity in spleen (spleen) | knockdown activity, compared with MC3 (F7; F7siRNA-loaded LNP, versus LNP comprising MC3) | F7 enzyme activity (%) (F7) | Fluc Activity in liver (liver) | PDI [3, 5] | ζ-Average (nm) [3, 5] [nm] | PDI [3, 6] | ζ-Average (nm) [3, 7] [nm] | period for which quality remained good, 40° C. (weeks) ([1]; maximum storage period 5 weeks) | Fluc activity in the liver, compared with CL4F6 (liver; [4])
1 | CCCCCCCCC(CCCC)C(=O)OCCCCCCC(O)(CCCCCCOC(=O)C(CCCC)CCCCCCCC)CCCCN(CCC)CCC (stereo not shown) [CL4F 10-4] | 1 | 5 | 5 | 0 | 100.1 | 99.8 | higher Fluc activity | 6.70E+06 Avg Radiance [p/s/cm2/sr] | higher knockdown activity | 1.7 | 1.20E+08 Avg Radiance [p/s/cm2/sr] | 0.021 | 95.37 | 0.041 | 84.92 | – | –
2 | CCCCCCCCC(CCCCCCC)C(=O)OCCCCCCC(O)(CCCCCCOC(=O)C(CCCCCCC)CCCCCCCC)CCCCN(CCC)CCC (stereo not shown) [CL4F 10-7] | 1 | 5 | 5 | – | 100.1 | 99.8 | – | 2.03E+06 Avg Radiance [p/s/cm2/sr] | – | 4.1 | 1.19E+08 Avg Radiance [p/s/cm2/sr] | 0.013 | 89.34 | 0.039 | 79.68 | 5 weeks | –
3 | CCCCCCCCC(CCCCCCCC)C(=O)OCCCCCCC(O)(CCCCCCOC(=O)C(CCCCCCCC)CCCCCCCC)CCCCN(CCC)CCC [CL4F 10-8] | 1 | 5 | 5 | – | 99.9 | 99.8 | – | 8.04E+05 Avg Radiance [p/s/cm2/sr] | – | 8.1 | 5.14E+07 Avg Radiance [p/s/cm2/sr] | 0.007 | 91.44 | 0.021 | 81.99 | 5 weeks | –
4 | CCCCCCCCCC(CCCCC)C(=O)OCCCCCCC(O)(CCCCCCOC(=O)C(CCCCC)CCCCCCCCC)CCCCN(CCC)CCC (stereo not shown) [CL4F 11-5] | 1 | 5 | 5 | – | 100.1 | 99.6 | – | 1.03E+06 Avg Radiance [p/s/cm2/sr] | – | 4.3 | 4.50E+07 Avg Radiance [p/s/cm2/sr] | 0.012 | 89.72 | 0.019 | 81.81 | 1 week weeks | –
5 | CCCCCCCCCC(CCCCCC)C(=O)OCCCCCCC(O)(CCCCCCOC(=O)C(CCCCCC)CCCCCCCCC)CCCCN(CCC)CCC (stereo not shown) [CL4F 11-6] | 1 | 5 | 5 | – | 99.9 | 99.8 | – | 2.54E+06 Avg Radiance [p/s/cm2/sr] | – | 6 | 1.38E+08 Avg Radiance [p/s/cm2/sr] | 0.034 | 92.98 | 0.020 | 84.50 | 5 weeks | higher Fluc activity
6 | CCCCCCCCCC(CCCCCCC)C(=O)OCCCCCCC(O)(CCCCCCOC(=O)C(CCCCCCC)CCCCCCCCC)CCCCN(CCC)CCC (stereo not shown) [CL4F 11-7] | 1 | 5 | 5 | – | 99.8 | 99.7 | – | 2.03E+06 Avg Radiance [p/s/cm2/sr] | – | 14.1 | 1.23E+08 Avg Radiance [p/s/cm2/sr] | 0.019 | 94.76 | 0.021 | 79.45 | 5 weeks | –
7 | CCCCCCCCCC(CCCCCCCCC)C(=O)OCCCCCCC(O)(CCCCCCOC(=O)C(CCCCCCCCC)CCCCCCCCC)CCCCN(CCC)CCC [CL4F 11-9] | 1 | 5 | 5 | – | 100.1 | 99.8 | – | 1.19E+06 Avg Radiance [p/s/cm2/sr] | – | 47.7 | 6.86E+07 Avg Radiance [p/s/cm2/sr] | 0.009 | 90.93 | 0.014 | 81.13 | 5 weeks | –
